# Source: patent US10111955B2, “PEG derivative” (priority 2014, dated 2018)
# Key:
# [1] = test system: Human lung cancer cell A549 cells; assay: Test Example 5 (second): human lung cancer cell A549 transplanted into nude mouse, Tables 5 and 6; format: in vivo, BALB/c nude mouse; settings: once a day, for 2 weeks
# Text: Human lung cancer cell A549 cells were transplanted into the right abdomen of a BALB/c nude mouse, and after 11 days, at the time point at which the average tumor size reached 200 mm^3, drug administration was initiated.
# [2] = test system: human lung cancer cell A549; assay: Test Example 3: human lung cancer cell A549 transplanted into nude mouse; format: in vivo, BALB/c nude mouse; settings: 300 mg/kg intraperitoneally once a week, total dosage 600 mg/kg, two weeks
# Protocol: 5×10^6 cells of human lung cancer cell A549 were transplanted into the right abdomen of a BALE/c nude mouse, and after 14 days, at the time at which the average tumor size reached 127 mm^3, drug administration was initiated. Compound (1a) was intravenously administered once a week at a dose of 200 mg/kg (the amount as converted to DFP-10917 was 4.8 mg/kg), and pemetrexed, which is a standard drug for lung cancer, was intraperitoneally administered once a week at a dose of 300 mg/kg. For the control, physiological saline was intravenously administered once a week. The observation was made for two weeks (administered two times in total).
# [3] = test system: human breast cancer cell BT474; assay: Test Example 4: human breast cancer cell BT474 transplanted into nude mouse; format: in vivo, BALB/c nude mouse; settings: 100 mg/kg once a week, total dosage 200 mg/kg
# Protocol: Compound (1a) was intravenously administered once a week at a dose of 200 mg/kg (the amount as converted to DFP-10917 was 4.8 mg/kg), and pemetrexed, which is a standard drug for lung cancer, was intraperitoneally administered once a week at a dose of 300 mg/kg. For the control, physiological saline was intravenously administered once a week. The observation was made for two weeks (administered two times in total). 1×10^7 cells of human breast cancer cell BT474 were transplanted into the right abdomen of a BALB/c nude mouse, and drugs were administered in the same manner as in Test Example 3. DFP-10917 and Compound (1a) were intravenously administered once a week, two times in total. For the control, physiological saline was administered once a week.
# [4] = test system: human pancreatic cancer cell Panc-1; assay: Test Example 5: human pancreatic cancer cell Panc-1 transplanted into nude mouse; format: in vivo, BALB/c nude mouse; settings: 100 mg/kg iv, repeated four times, total dosage 400 mg/kg
# Protocol: Compound (1a) was intravenously administered once a week at a dose of 200 mg/kg (the amount as converted to DFP-10917 was 4.8 mg/kg), and pemetrexed, which is a standard drug for lung cancer, was intraperitoneally administered once a week at a dose of 300 mg/kg. For the control, physiological saline was intravenously administered once a week. The observation was made for two weeks (administered two times in total). 5×10^6 cells of human pancreatic cancer cell Panc-1 were transplanted into the right abdomen of a BALB/c nude mouse, and drugs were administered in the same manner as in Test Example 3. Compound (1g) was intravenously administered once a week, two times in total, or twice a week. Gemcitabine was administered such that 100 mg/kg was administered in four divided portions over 3 days, and this intravenous administration was repeated four times in total. For the control, physiological saline was administered once a week.
# [5] = test system: pancreatic cancer cells; assay: Test Example 1: pancreatic cancer cells transplanted into BALB/c nude mouse, tumor volume and body weight; format: in vivo; settings: 4.5 mg/kg/day × 14 days, subcutaneous continuous infusion
# Protocol: 5×10^6 cells of pancreatic cancer cells were transplanted into the right abdomen of a BALB/c nude mouse, and after 7 days, at the time point at which the average tumor size reached 100 mm^3, drug administration was initiated. Up to 29 days from the time of drug administration, the body weight of the mouse and the tumor volume were measured. The results are presented in FIG. 11, FIG. 12, and Table 1. Subcutaneous continuous infusion of 1-(2′-cyano-2′-deoxy-β-D-arabinofuranosyl)cytosine hydrochloride (DFP-10917) at a dose of 4.5 mg/kg/day was continuously performed for two weeks using a micropump embedded in the body of the mouse. In contrast, Compound (1a) was intravenously administered once a week at a dose of 100 mg/kg, 200 mg/kg, or 300 mg/kg. The dosage of this Compound (1a) is administration once a week at a dose of 2.4 mg/kg, 4.8 mg/kg, or 7.2 mg/kg, as converted to […]. For the control, a buffer solution (pH=5.0) of sodium acetate was administered.
# [6] = test system: human breast cancer cell BT474; assay: Test Example 6: human breast cancer cell BT474 transplanted into nude mouse; format: in vivo, BALB/c nude mouse; settings: 5 mg/kg iv, once a week, for 2 weeks
# Protocol: 1×10^7 cells of human breast cancer cell BT474 were transplanted into the right abdomen of a BALB/c nude mouse, and when the tumor volume reached 100 to 150 mm^3, drugs were administered. The administration was implemented once a week for two weeks.
structure (smiles),measurement,setting,value
CCNCCNC(=O)c1c(C)[nH]c(/C=C2\C(=O)Nc3ccc(F)cc32)c1C [De-ethylated form of sunitinib],"TGI (D 29, %)",[1]; 50 mg/kg po,43.1%
same,"Tumor Volume (D 29, mm^3)",[1]; 50 mg/kg po,687 ± 103 mm^3
"Nc1nc2[nH]cc(CCc3ccc(C(=O)N[C@@H](CCC(=O)O)C(=O)O)cc3)c2c(=O)[nH]1 [Pemetrexed, pemetrexed]",TGI (tumor growth inhibition),[2],30
same,Tumor Volume,[2]; in mm³,818 ± 44
"Nc1ccn([C@@H]2O[C@H](CO)[C@@H](O)C2(F)F)c(=O)n1 [Gemcitabine, gemcitabine]",TGI (tumor growth inhibition),[3],43
same,Tumor Volume,[3],525 ± 95
same,TGI (tumor growth inhibition),[4],63.6
same,Tumor Volume,[4]; in mm³ (unit assumed),370 ± 37
"Cl.N#C[C@H]1[C@H](O)[C@@H](CO)O[C@H]1n1ccc(N)nc1=O [DFP-10917, 1-(2′-cyano-2′-deoxy-β-D-arabinofuranosyl)cytosine hydrochloride]","TGI (D 29, %) tumor growth inhibition",[5],37.7%
same,"Tumor Volume (D 29, mm^3)",[5]; Mean ± SEM,917 ± 72 mm^3
"CC(=O)O[C@H]1C(=O)[C@@]2(C)[C@H]([C@H](OC(=O)c3ccccc3)[C@]3(O)C[C@H](OC(=O)[C@H](O)[C@@H](NC(=O)c4ccccc4)c4ccccc4)C(C)=C1C3(C)C)[C@]1(OC(C)=O)CO[C@@H]1C[C@@H]2O [Paclitaxel, paclitaxel]","TGI (D 23, %) tumor growth inhibition ratio",[6],29.8%
same,"Tumor Volume (D 23, mm^3)",[6],275 ± 39 mm^3
"CS(=O)(=O)CCNCc1ccc(-c2ccc3ncnc(Nc4ccc(OCc5cccc(F)c5)c(Cl)c4)c3c2)o1 [Lapatinib, lapatinib]","TGI (D 29, %)",[1]; 100 mg/kg po,25.6%
same,"Tumor Volume (D 29, mm^3)",[1]; 100 mg/kg po,898 ± 120 mm^3
